The record followed here is patent publication US9181273B2, “Morpholine-spirocyclic piperidine amides as modulators of ion channels” (Vertex Pharmaceuticals Incorporated, priority 2011, dated 2015).

By IC50 is commonly meant the concentration needed to halve the response being measured.

The target in this assay is human NaV subtype, like NaV 1.7 (Homo sapiens, UniProt Q15858). Description: E-VIPR optical membrane potential assay with electrical stimulation. It counts as cell-based. The settings on record: active against one or more sodium channels; assay and NaV subtype not specified for Table 3; read-out: IC50 Binned Activity Data.
human NaV subtype, like NaV 1.7, sequence (Q15858 whole entry): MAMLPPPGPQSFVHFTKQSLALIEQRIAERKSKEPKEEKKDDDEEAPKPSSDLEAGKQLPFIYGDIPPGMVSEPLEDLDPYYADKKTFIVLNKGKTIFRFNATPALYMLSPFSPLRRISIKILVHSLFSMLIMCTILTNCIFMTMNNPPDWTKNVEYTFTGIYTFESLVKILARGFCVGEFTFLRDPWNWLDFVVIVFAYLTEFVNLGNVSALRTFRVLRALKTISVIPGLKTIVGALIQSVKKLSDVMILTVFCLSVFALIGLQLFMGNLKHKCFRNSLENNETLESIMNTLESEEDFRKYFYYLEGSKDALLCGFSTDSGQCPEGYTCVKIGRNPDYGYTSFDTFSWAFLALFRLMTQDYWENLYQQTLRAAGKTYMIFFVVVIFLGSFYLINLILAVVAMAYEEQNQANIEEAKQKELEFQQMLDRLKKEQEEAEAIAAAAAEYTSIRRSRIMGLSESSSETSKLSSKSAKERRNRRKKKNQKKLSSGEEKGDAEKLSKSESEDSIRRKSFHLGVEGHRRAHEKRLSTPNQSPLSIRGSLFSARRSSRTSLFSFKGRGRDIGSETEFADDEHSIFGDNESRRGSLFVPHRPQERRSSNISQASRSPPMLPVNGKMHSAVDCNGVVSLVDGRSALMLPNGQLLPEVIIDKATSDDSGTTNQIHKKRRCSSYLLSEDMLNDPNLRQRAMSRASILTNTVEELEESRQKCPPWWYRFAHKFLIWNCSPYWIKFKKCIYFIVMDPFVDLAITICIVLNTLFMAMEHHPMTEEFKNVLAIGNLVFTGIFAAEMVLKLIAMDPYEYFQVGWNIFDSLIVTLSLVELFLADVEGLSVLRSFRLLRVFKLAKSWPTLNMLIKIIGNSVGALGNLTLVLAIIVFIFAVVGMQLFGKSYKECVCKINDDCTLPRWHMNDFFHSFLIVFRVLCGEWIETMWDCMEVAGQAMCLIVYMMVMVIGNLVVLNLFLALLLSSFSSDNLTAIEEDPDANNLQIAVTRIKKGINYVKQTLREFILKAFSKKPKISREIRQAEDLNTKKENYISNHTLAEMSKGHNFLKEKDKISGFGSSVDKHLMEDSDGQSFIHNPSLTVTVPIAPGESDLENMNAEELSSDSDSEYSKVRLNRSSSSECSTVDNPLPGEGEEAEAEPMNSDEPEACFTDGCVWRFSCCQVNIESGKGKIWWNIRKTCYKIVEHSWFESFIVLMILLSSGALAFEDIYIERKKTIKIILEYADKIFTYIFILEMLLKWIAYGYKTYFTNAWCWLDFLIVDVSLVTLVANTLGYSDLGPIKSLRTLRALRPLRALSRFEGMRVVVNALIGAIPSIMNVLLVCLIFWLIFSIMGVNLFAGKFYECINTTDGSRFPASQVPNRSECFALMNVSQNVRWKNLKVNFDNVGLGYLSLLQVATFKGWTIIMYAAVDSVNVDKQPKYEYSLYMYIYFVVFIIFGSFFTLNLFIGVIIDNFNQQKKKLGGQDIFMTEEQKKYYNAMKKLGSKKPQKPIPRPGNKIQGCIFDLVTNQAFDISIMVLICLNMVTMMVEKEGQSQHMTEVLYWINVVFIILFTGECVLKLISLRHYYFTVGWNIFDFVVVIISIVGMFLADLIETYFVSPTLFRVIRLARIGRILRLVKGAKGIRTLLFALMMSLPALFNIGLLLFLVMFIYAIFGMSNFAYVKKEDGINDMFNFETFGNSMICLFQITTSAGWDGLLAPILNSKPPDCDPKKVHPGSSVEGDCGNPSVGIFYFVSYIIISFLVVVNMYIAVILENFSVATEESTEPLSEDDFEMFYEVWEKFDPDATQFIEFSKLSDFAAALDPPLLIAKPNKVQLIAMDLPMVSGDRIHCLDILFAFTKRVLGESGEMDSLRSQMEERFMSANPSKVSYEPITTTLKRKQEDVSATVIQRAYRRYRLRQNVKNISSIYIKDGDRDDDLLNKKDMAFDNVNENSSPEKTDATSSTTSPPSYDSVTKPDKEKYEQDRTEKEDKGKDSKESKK
For the compound `Cc1cc(C(=O)N2CCC3(CC2)CN(CC(F)F)CC(c2ccc(F)cc2)O3)ccc1OCC(C)(C)O` (stereo not shown) [Compound 170], the IC50 is under 2000 nM.

With `CC(C)Oc1ccc(C(=O)N2CCC3(CC2)CN(CC(F)F)CC(c2ncc(C(C)C)o2)O3)cc1F` (stereo not shown) [Compound 159], the 50% inhibitory concentration (IC50) was over 5000 nM.

As for `CCC1CN(c2ccccn2)CC2(CCN(C(=O)c3ccc(C4(O)CCCC4)c(F)c3)CC2)O1` (stereo not shown) [Compound 17], the IC50 was under 2000 nM.

`COCC1CN(c2cccc(C(F)(F)F)c2)CC2(CCN(C(=O)c3ccc(OCC(C)(C)O)c(C)c3)CC2)O1` (stereo not shown) [Compound 225]: the IC50 is under 2000 nM.

As to `CCC(CC)CN1CC(COC)OC2(CCN(C(=O)c3ccc(OC(C)C)c(C)c3)CC2)C1` (stereo not shown) [Compound 112], the IC50 is under 2000 nM.

Turning to `CCC1CN(c2ncccn2)CC2(CCN(C(=O)c3ccc(C4(O)CCCCC4)cc3)CC2)O1` (stereo not shown) [Compound 67], the IC50 is under 2000 nM.

With `O=C(c1ccc(S(=O)(=O)C2CCOC2)cc1)N1CCC2(CC1)CN(CC(F)F)CC(c1ccc(F)cc1)O2` (stereo not shown) [Compound 96], the IC50 was over 5000 nM.

For the compound `Cc1cnc(C2CN(C(C)(C)C)CC3(CCN(C(=O)c4ccc(OC(C)C)c(C)c4)CC3)O2)o1` (stereo not shown) [Compound 49], the IC50 is under 2000 nM.

As for `COCC1CN(c2cccc(C(F)(F)F)c2)CC2(CCN(C(=O)c3ccc(OC(C)C)c(C)c3)CC2)O1` (stereo not shown) [Compound 258], the IC50 is under 2000 nM.

In the case of `COCC1CN(c2ccccn2)CC2(CCN(C(=O)c3ccc(OC(C)C)c(C)c3)CC2)O1` (stereo not shown) [Compound 140], the IC50 was under 2000 nM.
